Data reported in US20260364089A1, “PYRIDOPYRIMIDINE KRAS INHIBITORS” (Treeline Biosciences, Inc., priority 2022, published 2026).

What was measured:
KRas G12V [1] = target: T1, KRas G12V (Homo sapiens, UniProt P01116, G12V); experiment: SOS1-Catalyzed Nucleotide Exchange Assay, KRas G12V (Method 1); assay type: biochemical; conditions: 5 nM KRas G12V (aa 1-169, GDP-loaded), 50 nM SOS1
T1 construct: Biotinylated KRas G12V (aa 1-169) loaded with GDP nucleotide; biotin (biotinylated)
Procedure: KRas G12V [Method 1]: Biotinylated KRas G12V (aa 1-169) loaded with GDP nucleotide and Streptavidin-Europium (SA-EU, Columbia Biosciences) were preincubated in assay buffer (20 mM HEPES pH 7.4, 150 mM NaCl, 5 mM MgCl2, 1 mM DTT, 0.01% Brij-35, 0.3 mg/mL BSA) on ice for 30 min. Separately SOS1 (aa 546-1049) and EDA-GTP-DY647P1 (Jena Bioscience) were preincubated in assay buffer on ice for 30 min. After pre-incubation, 5 μL buffer and 5 μL of KRas G12V-SA-Eu were added to each well of a white, low-volume, non-binding 384-well plate. Compounds were then added to respective wells with a Tecan D300e liquid dispenser. A 10-point concentration response curve for each compound was prepared with appropriate top concentration (1 μM, 10 μM, or 300 μM) and incubated for 30 min. 5 μL of SOS1-EDA-GTP-D467P1 was added to start the nucleotide exchange reaction. Final concentration in the assay were 5 nM KRas G12V, 50 nM SOS1 (aa 564-1049). The reaction was allowed to proceed for 60-90 minutes after which the plate was read on a PHERAstar FSX plate reader (exc: 337 nm, em 1: 665 nm, em 2: 620 nm). After normalization of the raw data (ratio of Signal665nm/Signal620nm) the data was fit to a four-parameter logistic curve in GraphPad Prism (v9.4.1).

KRas G12V [2] = target: T1, KRas G12V; experiment: SOS1-Catalyzed Nucleotide Exchange Assay, KRas G12V (Method 2); assay type: biochemical; conditions: 5 nM KRas G12V (aa 1-169, GDP-loaded), 50 nM SOS1
Procedure: KRas G12V [Method 2]: Compounds were pre-dispensed via Echo liquid handling (acoustic, touch-free) to generate assay ready plates (ARP). More precisely, a 10-point concentration response curve for each compound was prepared with appropriate top concentration (1 μM, 10 μM, 100 μM). Biotinylated KRas G12V (aa 1-169) loaded with GDP nucleotide and Streptavidin-Europium (SA-EU, Columbia Biosciences) were preincubated in assay buffer (20 mM HEPES pH 7.4, 150 mM NaCl, 5 mM MgCl2, 1 mM DTT, 0.01% Brij-35, 0.3 mg/mL BSA) on ice for 30 min. Separately SOS1 (aa 546-1049) and EDA-GTP-DY647P1 (Jena Bioscience) were preincubated in assay buffer on ice for 30 min. After 30 minutes of incubation for the assay components, 5 μL buffer and 5 μL of KRas G12V-SA-Eu were added to each well of the ARP. After a further 30 min, 5 μL of SOS1-EDA-GTP-D467P1 was added to start the nucleotide exchange reaction. Final concentration in the assay were 5 nM KRas G12V, 50 nM SOS1 (aa 564-1049). The reaction was allowed to proceed for 60-90 minutes after which the plate was read on a plate reader. After normalization of the raw data, the data was fit to a four-parameter logistic curve.

[3] = Method 2, A, read-out: KRas G12V IC50 (nM) (Method 2, A)
[4] = Method 2, B, read-out: KRas G12V IC50 (nM) (Method 2, B)

T1 sequence (P01116 1-169 G12V): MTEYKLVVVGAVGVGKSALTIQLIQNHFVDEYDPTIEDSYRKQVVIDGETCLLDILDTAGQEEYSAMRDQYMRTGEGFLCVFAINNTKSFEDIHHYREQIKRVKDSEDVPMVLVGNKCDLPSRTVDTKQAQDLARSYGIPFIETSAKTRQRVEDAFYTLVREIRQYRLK

| SMILES | IC50 (KRas G12V [1]) [nM] | IC50 (KRas G12V [2]; [3]) [nM] | IC50 (KRas G12V [2]; [4]) [nM] |
| --- | --- | --- | --- |
| O=C1CCCCc2c(Cl)cc(O)cc2-c2ncc3c(nc(OC[C@@]45CCCN4C[C@H](F)C5)nc3c2F)N2CCCC(CN1)C2 (stereo partly drawn) [Compound 141a, 3^3-chloro-2^8-fluoro-2^2-(((2R,7aS)-2-fluorotetrahydro-1H-pyrrolizin-7a(5H)-yl)methoxy)-3^5-hydroxy-9-aza-2(4,7)-pyrido[4,3-d]pyrimidina-1(1,3)-piperidina-3(1,2)-benzenacyclodecaphan-8-one] | ≤ 100 |  |  |
| Nc1ccc2c(c1)-c1ncc3c(nc(OC[C@@]45CCCN4C[C@H](F)C5)nc3c1F)N1CCCC(O)(CCNC(=O)CCCC2)C1 (stereo partly drawn) [Compound 157a, 3^5-amino-2^8-fluoro-2^2-(((2R,7aS)-2-fluorotetrahydro-1H-pyrrolizin-7a(5H)-yl)methoxy)-1^3-hydroxy-9-aza-2(4,7)-pyrido[4,3-d]pyrimidina-1(1,3)-piperidina-3(1,2)-benzenacycloundecaphan-8-one] |  | 1000 to 10000 |  |
| Nc1cc2c(c(Cl)n1)CCCCC(=O)NCCC1(O)CCCN(C1)c1nc(OC[C@@]34CCCN3C[C@H](F)C4)nc3c(F)c-2ccc13 (stereo partly drawn) [Compound 187a, 1^6-amino-1^2-chloro-2^8-fluoro-2^2-(((2R,7aS)-2-fluorotetrahydro-1H-pyrrolizin-7a(5H)-yl)methoxy)-3^3-hydroxy-6-aza-2(7,4)-quinazolina-1(4,3)-pyridina-3(1,3)-piperidinacycloundecaphan-7-one] |  |  | 1000 to 10000 |
| Nc1cc2c(cc1F)CCCCC(=O)NCCC1(O)CCCN(C1)c1nc(OC[C@@]34CCCN3C[C@H](F)C4)nc3c(F)c-2ncc13 (stereo partly drawn) [Compound 161a, 3^5-amino-2^8,3^4-difluoro-2^2-(((2R,7aS)-2-fluorotetrahydro-1H-pyrrolizin-7a(5H)-yl)methoxy)-1^3-hydroxy-9-aza-2(4,7)-pyrido[4,3-d]pyrimidina-1(1,3)-piperidina-3(1,2)-benzenacycloundecaphan-8-one] |  | 1000 to 10000 |  |
| Nc1cc2c(cc1F)CCCCC(=O)NCCC1CCCN(C1)c1nc(OC[C@@]34CCCN3C[C@H](F)C4)nc3c(F)c-2ncc13 (stereo partly drawn) [Compound 159a, 3^5-amino-2^8,3^4-difluoro-2^2-(((2R,7aS)-2-fluorotetrahydro-1H-pyrrolizin-7a(5H)-yl)methoxy)-9-aza-2(4,7)-pyrido[4,3-d]pyrimidina-1(1,3)-piperidina-3(1,2)-benzenacycloundecaphan-8-one] |  | 1000 to 10000 |  |
| Nc1ccc2c(c1F)-c1ncc3c(nc(OC[C@@]45CCCN4C[C@H](F)C5)nc3c1F)N1CCCC(CCNC(=O)CCCC2)C1 (stereo partly drawn) [Compound 160a, 3^5-amino-2^8,3^6-difluoro-2^2-(((2R,7aS)-2-fluorotetrahydro-1H-pyrrolizin-7a(5H)-yl)methoxy)-9-aza-2(4,7)-pyrido[4,3-d]pyrimidina-1(1,3)-piperidina-3(1,2)-benzenacycloundecaphan-8-one] |  | 10000 to 30000 |  |
| Nc1cc(Cl)c2c(c1)-c1ncc3c(nc(OC[C@@]45CCCN4C[C@H](F)C5)nc3c1F)N1CCOCC(CNC(=O)CCCC2)C1 (stereo partly drawn) [Compound 162a, 3^5-amino-3^3-chloro-2^8-fluoro-2^2-(((2R,7aS)-2-fluorotetrahydro-1H-pyrrolizin-7a(5H)-yl)methoxy)-9-aza-1(4,6)-oxazepana-2(4,7)-pyrido[4,3-d]pyrimidina-3(1,2)-benzenacyclodecaphan-8-one] |  |  | 100 to 1000 |
| CN1CCC[C@H]1CCOc1nc2c3cnc(c(F)c3n1)-c1cc(N)cc(Cl)c1CCCCC(=O)NCCC1CCCN2C1 (stereo partly drawn) [Compound 176a, 3^5-amino-3^3-chloro-2^8-fluoro-2^2-(2-((S)-1-methylpyrrolidin-2-yl)ethoxy)-9-aza-2(4,7)-pyrido[4,3-d]pyrimidina-1(1,3)-piperidina-3(1,2)-benzenacycloundecaphan-8-one] |  |  | 100 to 1000 |

The next lines start with the values.

| IC50 (KRas G12V [1]) [nM] | IC50 (KRas G12V [2]; [3]) [nM] | IC50 (KRas G12V [2]; [4]) [nM] | SMILES |
| --- | --- | --- | --- |
|  | 100 to 1000 | 100 to 1000 | Nc1cc2c3c(c(F)ccc3c1)CCCC(=O)NCC1COCCN(C1)c1nc(OC[C@@]34CCCN3C[C@H](F)C4)nc3c(F)c-2ncc13 (stereo partly drawn) [Compound 192a, 3^3-amino-2^8,3^7-difluoro-2^2-(((2R,7aS)-2-fluorotetrahydro-1H-pyrrolizin-7a(5H)-yl)methoxy)-8-aza-1(4,6)-oxazepana-2(4,7)-pyrido[4,3-d]pyrimidina-3(1,8)-naphthalenacyclononaphan-7-one] |
|  |  | 100 to 1000 | CN1C[C@H](F)C[C@H]1COc1nc2c3cnc(c(F)c3n1)-c1cc(N)cc(Cl)c1CCCCC(=O)NCCC1CCCN2C1 (stereo partly drawn) [Compound 179a, 3^5-amino-3^3-chloro-2^8-fluoro-2^2-(((2S,4R)-4-fluoro-1-methylpyrrolidin-2-yl)methoxy)-9-aza-2(4,7)-pyrido[4,3-d]pyrimidina-1(1,3)-piperidina-3(1,2)-benzenacycloundecaphan-8-one] |
|  |  | ≤ 100 | O=C1CCCCc2c(Cl)cc3[nH]ncc3c2-c2ccc3c(nc(OC[C@@]45CCCN4C[C@H](F)C5)nc3c2F)N2CCCC(O)(CCN1)C2 (stereo partly drawn) [Compound 199a, 1^6-chloro-2^8-fluoro-2^2-(((2R,7aS)-2-fluorotetrahydro-1H-pyrrolizin-7a(5H)-yl)methoxy)-3^3-hydroxy-1^1H-6-aza-2(7,4)-quinazolina-1(4,5)-indazola-3(1,3)-piperidinacycloundecaphan-7-one] |
|  | 100 to 1000 | 100 to 1000 | O=C1CCCc2c(F)ccc3cccc(c23)-c2ncc3c(nc(OC[C@@]45CCCN4C[C@H](F)C5)nc3c2F)N2CCOCC(CN1)C2 (stereo partly drawn) [Compound 193a, 2^8,3^7-difluoro-2^2-(((2R,7aS)-2-fluorotetrahydro-1H-pyrrolizin-7a(5H)-yl)methoxy)-8-aza-1(4,6)-oxazepana-2(4,7)-pyrido[4,3-d]pyrimidina-3(1,8)-naphthalenacyclononaphan-7-one] |
|  | ≤ 100 | ≤ 100 | O=C1CCCc2c(F)ccc3cc(O)cc(c23)-c2ncc3c(nc(OC[C@@]45CCCN4C[C@H](F)C5)nc3c2F)N2CCOCC(CCN1)C2 (stereo partly drawn) [Compound 194a, 2^8,3^7-difluoro-2^2-(((2R,7aS)-2-fluorotetrahydro-1H-pyrrolizin-7a(5H)-yl)methoxy)-3^3-hydroxy-8-aza-1(4,6)-oxazepana-2(4,7)-pyrido[4,3-d]pyrimidina-3(1,8)-naphthalenacyclodecaphan-7-one] |
|  |  | 100 to 1000 | CN(C)CC1(COc2nc3c4cnc(c(F)c4n2)-c2cc(N)cc(Cl)c2CCCCC(=O)NCCC2CCCN3C2)CC1 (stereo not drawn) [Compound 178, 3^5-amino-3^3-chloro-2^2-((1-((dimethylamino)methyl)cyclopropyl)methoxy)-2^8-fluoro-9-aza-2(4,7)-pyrido[4,3-d]pyrimidina-1(1,3)-piperidina-3(1,2)-benzenacycloundecaphan-8-one] |
|  |  | ≤ 100 | O=C1CCCc2c(F)ccc3cc(O)cc(c23)-c2ncc3c(nc(OC[C@@]45CCCN4C[C@H](F)C5)nc3c2F)N2CCCC(CCN1)C2 (stereo partly drawn) [Compound 118a, 2^8,3^7-difluoro-2^2-(((2R,7aS)-2-fluorotetrahydro-1H-pyrrolizin-7a(5H)-yl)methoxy)-3^3-hydroxy-8-aza-2(4,7)-pyrido[4,3-d]pyrimidina-1(1,3)-piperidina-3(1,8)-naphthalenacyclodecaphan-7-one] |
|  | 100 to 1000 | ≤ 100 | O=C1CCCc2c(F)ccc3cccc(c23)-c2ccc3c(nc(OC[C@@]45CCCN4C[C@H](F)C5)nc3c2F)N2CCCC(CCN1)C2 (stereo partly drawn) [Compound 191a, 2^8,3^7-difluoro-2^2-(((2R,7aS)-2-fluorotetrahydro-1H-pyrrolizin-7a(5H)-yl)methoxy)-8-aza-2(4,7)-quinazolina-1(1,3)-piperidina-3(1,8)-naphthalenacyclodecaphan-7-one] |
|  |  | ≤ 100 | O=C1CCCCc2c(Cl)cc3[nH]ncc3c2-c2ccc3c(nc(OC[C@@]45CCCN4C[C@H](F)C5)nc3c2F)N2CCCC(CCN1)C2 (single isomer, unassigned) [Compound 202a] |
